Assay results published in the NIST ThermoML archive (doi:10.1021/acs.jced.9b00536).
Numbers after ± are expanded uncertainties.

Assay: refractive index (Na D-line) (dimensionless); wn = mass fraction of the nth substance listed
Settings: 100 kPa, Liquid, Standard Abbe refractometry

[Na+].[OH-] [sodium hydroxide] + O
refractive index
Settings | 308.15 K | 313.15 K | 318.15 K | 323.15 K | 328.15 K | 333.15 K
w1 = 0.2 | – | 1.3801 ± 0.002 | 1.3795 ± 0.002 | 1.3788 ± 0.002 | 1.3788 ± 0.002 | 1.3794 ± 0.002
w1 = 0.21 | – | 1.3825 ± 0.002 | 1.3819 ± 0.002 | 1.3815 ± 0.002 | 1.381 ± 0.002 | 1.3812 ± 0.002
w1 = 0.22 | – | 1.3851 ± 0.002 | 1.3847 ± 0.002 | 1.3844 ± 0.002 | 1.3836 ± 0.002 | 1.3835 ± 0.002
w1 = 0.23 | – | 1.3866 ± 0.002 | 1.3858 ± 0.002 | 1.3853 ± 0.002 | 1.3852 ± 0.002 | 1.3857 ± 0.002
w1 = 0.24 | – | 1.3886 ± 0.002 | 1.3877 ± 0.002 | 1.3869 ± 0.002 | 1.3862 ± 0.002 | 1.3847 ± 0.002
w1 = 0.25 | – | 1.3917 ± 0.002 | 1.391 ± 0.002 | 1.3904 ± 0.002 | 1.39 ± 0.002 | 1.3894 ± 0.002
w1 = 0.26 | – | 1.3938 ± 0.002 | 1.3931 ± 0.002 | 1.3926 ± 0.002 | 1.3922 ± 0.002 | 1.3915 ± 0.002
w1 = 0.27 | – | 1.3955 ± 0.002 | 1.3946 ± 0.002 | 1.3937 ± 0.002 | 1.3929 ± 0.002 | 1.3923 ± 0.002
w1 = 0.28 | – | 1.3975 ± 0.002 | 1.3968 ± 0.002 | 1.3961 ± 0.002 | 1.3953 ± 0.002 | 1.3941 ± 0.002
w1 = 0.29 | – | 1.3999 ± 0.002 | 1.3989 ± 0.002 | 1.3981 ± 0.002 | 1.397 ± 0.002 | 1.3964 ± 0.002
w1 = 0.3 | – | 1.4011 ± 0.002 | 1.4002 ± 0.002 | 1.3994 ± 0.002 | 1.3986 ± 0.002 | 1.3977 ± 0.002
w1 = 0.31 | – | 1.4033 ± 0.002 | 1.4024 ± 0.002 | 1.4016 ± 0.002 | 1.4008 ± 0.002 | 1.3998 ± 0.002
w1 = 0.32 | – | 1.4044 ± 0.002 | 1.4036 ± 0.002 | 1.4025 ± 0.002 | 1.4018 ± 0.002 | 1.4008 ± 0.002
w1 = 0.33 | – | 1.4061 ± 0.002 | 1.4051 ± 0.002 | 1.4042 ± 0.002 | 1.4033 ± 0.002 | 1.4024 ± 0.002
w1 = 0.34 | – | 1.4086 ± 0.002 | 1.4077 ± 0.002 | 1.4068 ± 0.002 | 1.4058 ± 0.002 | 1.4048 ± 0.002
w1 = 0.35 | 1.4114 ± 0.002 | 1.4105 ± 0.002 | 1.4095 ± 0.002 | 1.4085 ± 0.002 | 1.4076 ± 0.002 | 1.4066 ± 0.002
w1 = 0.36 | 1.413 ± 0.002 | 1.4121 ± 0.002 | 1.4111 ± 0.002 | 1.4102 ± 0.002 | 1.4093 ± 0.002 | 1.4083 ± 0.002
w1 = 0.37 | 1.4145 ± 0.002 | 1.4136 ± 0.002 | 1.4126 ± 0.002 | 1.4117 ± 0.002 | 1.4107 ± 0.002 | 1.4098 ± 0.002
w1 = 0.38 | 1.4163 ± 0.002 | 1.4154 ± 0.002 | 1.4145 ± 0.002 | 1.4135 ± 0.002 | 1.4126 ± 0.002 | 1.4116 ± 0.002
w1 = 0.39 | 1.418 ± 0.002 | 1.417 ± 0.002 | 1.416 ± 0.002 | 1.4151 ± 0.002 | 1.4142 ± 0.002 | 1.4133 ± 0.002
w1 = 0.4 | 1.4196 ± 0.002 | 1.4186 ± 0.002 | 1.4177 ± 0.002 | 1.4167 ± 0.002 | 1.4159 ± 0.002 | 1.415 ± 0.002
w1 = 0.41 | 1.4206 ± 0.002 | 1.4196 ± 0.002 | 1.4186 ± 0.002 | 1.4177 ± 0.002 | 1.4167 ± 0.002 | 1.4159 ± 0.002
w1 = 0.42 | 1.4221 ± 0.002 | 1.4212 ± 0.002 | 1.4202 ± 0.002 | 1.4192 ± 0.002 | 1.4183 ± 0.002 | 1.4174 ± 0.002
w1 = 0.43 | 1.4236 ± 0.002 | 1.4226 ± 0.002 | 1.4217 ± 0.002 | 1.4207 ± 0.002 | 1.4198 ± 0.002 | 1.4189 ± 0.002
w1 = 0.44 | 1.4245 ± 0.002 | 1.4235 ± 0.002 | 1.4226 ± 0.002 | 1.4217 ± 0.002 | 1.4208 ± 0.002 | 1.4198 ± 0.002
w1 = 0.45 | 1.4258 ± 0.002 | 1.425 ± 0.002 | 1.4239 ± 0.002 | 1.423 ± 0.002 | 1.4221 ± 0.002 | 1.4212 ± 0.002
w1 = 0.46 | 1.4275 ± 0.002 | 1.4266 ± 0.002 | 1.4256 ± 0.002 | 1.4247 ± 0.002 | 1.4238 ± 0.002 | 1.4229 ± 0.002
w1 = 0.47 | 1.4285 ± 0.002 | 1.4275 ± 0.002 | 1.4266 ± 0.002 | 1.4257 ± 0.002 | 1.4248 ± 0.002 | 1.4239 ± 0.002
w1 = 0.48 | 1.4301 ± 0.002 | 1.4292 ± 0.002 | 1.4282 ± 0.002 | 1.4273 ± 0.002 | 1.4264 ± 0.002 | 1.4255 ± 0.002
w1 = 0.49 | 1.4309 ± 0.002 | 1.43 ± 0.002 | 1.4289 ± 0.002 | 1.428 ± 0.002 | 1.4271 ± 0.002 | 1.4263 ± 0.002
w1 = 0.5 | 1.4319 ± 0.002 | 1.4311 ± 0.002 | 1.4302 ± 0.002 | 1.4293 ± 0.002 | 1.4284 ± 0.002 | 1.4276 ± 0.002
